For data set [1], the target named is T1, His-hMAGL (recombinant polyhistidine tagged human MAGL protein) (Homo sapiens, UniProt Q99685).
T1 construct: polyhistidine (His) (N); made in house; host or cells: E. coli BL21(DE3)
T1 sequence (Q99685 1-303): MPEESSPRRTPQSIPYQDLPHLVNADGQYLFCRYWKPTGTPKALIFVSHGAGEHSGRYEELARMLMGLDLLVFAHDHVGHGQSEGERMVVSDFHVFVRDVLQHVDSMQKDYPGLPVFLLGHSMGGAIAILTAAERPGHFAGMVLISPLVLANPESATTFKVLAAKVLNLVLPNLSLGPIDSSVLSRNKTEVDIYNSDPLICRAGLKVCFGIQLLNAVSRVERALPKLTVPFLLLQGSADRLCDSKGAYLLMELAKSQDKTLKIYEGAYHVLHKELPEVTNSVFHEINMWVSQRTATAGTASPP
The data set is described as follows: Measurement of MAGL inhibitory activity (RapidFire-mass spectrometry of arachidonic acid produced from 2-arachidonylglycerol). In kind it is biochemical. Conditions: read-out: % inhibition (10 μM). In short, it runs like this:
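After quenching with acetonitrile containing 3 μM arachidonic acid-d8, the arachidonic acid formed was measured by online SPE RapidFire-MS/MS in negative SRM mode and corrected against the d8 standard. Inhibition (%) was calculated relative to compound-free and enzyme-free groups.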

Data set [2] has as its system intracerebral 2-AG and arachidonic acid. The experiment in a line: Measurement of intracerebral 2-AG and arachidonic acid concentrations. The format is in vivo, mouse (C57BL/6J). The settings on record: for 2-AG concentration / arachidonic acid concentration: cerebrum of male C57BL/6J mice, 3 mg/kg body weight by gavage, isolated 1 hour after administration; for 2-AG concentration: control 9.9; for arachidonic acid concentration: control 163.5; for migration into brain / intracerebral 2-AG concentration compared to control / intracerebral arachidonic acid concentration compared to control: oral administration to C57BL/6J mice; for intracerebral 2-AG concentration compared to control / intracerebral arachidonic acid concentration compared to control: result in words. As for the experimental part:
As the mouse, 8-week-old male C57BL/6J mice (CLEA Japan, Inc.) were used (6 mice/group). Administration solutions were prepared by suspending the test compounds (compound 1 (compound of Example 6), compound 2 (compound of Example 93) and compound 3 (compound of Example 97)) in 0.5% methylcellulose solution (Wako Pure Chemical Industries, Ltd.). The dose of the test compound was prepared to be 3 mg/kg body weight/10 mL. The test compounds were administered by gavage at 3 mg/kg body weight. The cerebrum was isolated after the administration of the test compound (isolation time after the administration of the test compound is shown in Table 3), and the cerebrum hemisphere was extracted. The obtained cerebrum hemisphere was frozen on dry ice, and the frozen tissue weight was measured.
The cerebral tissue weight was measured, and cerebral tissue was homogenized with 4-fold (v/w) of isopropanol (IPA), and double diluted with IPA. To the diluted sample (200 μL) was added internal standard solution (5 μL) ([5,6,8,9,11,12,14,15-D8]-(5Z,8Z,11Z,14Z)5,8,11,14-eicosatetraenoic acid (AA-d8, 0.5 nmol/mL IPA) and [5,6,8,9,11,12,14,15-D8]-(5Z,8Z,11Z,14Z)-5,8,11,14-eicosatetraenoyl-2-glycerol ester (2-AG-d8, 0.5 nmol/mL IPA)), and the mixture was centrifuged at 15000 rpm for 5 min. The supernatant was injected to liquid chromatographymass spectrometer to perform quantitative analysis.
For liquid chromatography, Shimadzu LC20A system (Shimadzu Corporation) was used. The separation was performed by gradient elution method with mobile phase A (10 mmol/L HCOONH4/HCOOH (100:0.2, v/v)) and mobile phase B (ethanol/IPA (3:2, v/v)) using Shim-pack XR-ODS (2.2 μm, 2.0×30 mm, Shimadzu Corporation) at column temperature of 50° C., at flow rate of 0.5 mL/min. The gradient conditions are as follows: 0-1 min, 1% B; 1-1.2 min, 1-55% B; 1.2-2.7 min, 55-75% B; 2.7-3.5 min, 75-99% B; 3.5-6 min, 99% B; 6-8 min, 1% B.
For mass spectrometer, API5000 (AB SCIEX) was used. The eluate from the liquid chromatography was directly ionized by turbospray ionization method, where (5Z,8Z,11Z,14Z)5,8,11,14-eicosatetraenoic acid (AA) and AA-d8 were measured by negative ionization mode, and (5Z,8Z,11Z,14Z)5,8,11,14-eicosatetraenoyl-2-glycerol ester (2-AG) and 2-AG-d8 were measured by positive ionization mode.
A solution for calibration curve was prepared to the concentration of 2, 5, 10, 20, 50, 100, 200, 500, 1000 nmol/mL of acetonitrile. These solutions (10 μL) was mixed with 200 μL of IPA and 5 μL of internal standard solution, and the mixture was centrifuged at 15000 rpm for 5 min, and the supernatant was injected to liquid chromatography mass spectrometer to perform analysis. The calibration curve was drawn by regression line with a weighting of 1/x^2, and the quantitativity was confirmed by accuracy of 100±20% and R^2>0.99.

Setting [3] is: test compound 10 μM, His-hMAGL, substrate 2-arachidonylglycerol, 60 min preincubation.

The structures appear in SMILES notation. Like-named read-outs stand apart in the source and are kept apart here.

As to `O=C1N[C@]2(CO1)C[C@H](C(=O)N1CC(OCc3ccc(C(F)(F)F)cc3F)C1)C2` [Example 6, (2s,4s)-2-((3-((2-fluoro-4-(trifluoromethyl)benzyl)oxy)azetidin-1-yl)carbonyl)-7-oxa-5-azaspiro[3.4]octan-6-one], the inhibition at 10 µM in data set [1] (setting [3]) is 100%. Besides, in data set [2], the 2-AG concentration was determined as 124.5 nmol/g, the arachidonic acid concentration was determined as 31.7 nmol/g, the migration into brain result is given as “migrated into brain” and the “intracerebral 2-AG concentration compared to control” value is on record as “increased significantly”. Further, the “intracerebral arachidonic acid concentration compared to control” value in data set [2] was “decreased significantly”.
Take `Cc1cc(C(F)(F)F)ccc1COC1CN(C(=O)[C@H]2C[C@]3(COC(=O)N3)C2)C1` [Example 93, (2s,4s)-2-((3-((2-methyl-4-(trifluoromethyl)benzyl)oxy)azetidin-1-yl)carbonyl)-7-oxa-5-azaspiro[3.4]octan-6-one]: in data set [1] (setting [3]), the inhibition at 10 µM was 100%. Further, in data set [2], the 2-AG concentration was 125.2 nmol/g, the arachidonic acid concentration stood at 42.6 nmol/g, the migration into brain entry is “migrated into brain” and the “intracerebral 2-AG concentration compared to control” value is listed as “increased significantly”. In addition, in data set [2], the “intracerebral arachidonic acid concentration compared to control” value is listed as “decreased significantly”.
For the compound `Cc1ccc(COC2CN(C(=O)[C@H]3C[C@]4(COC(=O)N4)C3)C2)cc1Cl` [Example 97, (2s,4s)-2-((3-((3-chloro-4-methylbenzyl)oxy)azetidin-1-yl)carbonyl)-7-oxa-5-azaspiro[3.4]octan-6-one], in data set [1], the inhibition at 10 µM was 100%. In data set [2], the 2-AG concentration came out at 131.9 nmol/g, the arachidonic acid concentration came to 60.9 nmol/g, the migration into brain entry is given as “migrated into brain” and the “intracerebral 2-AG concentration compared to control” value is “increased significantly”. Moreover, the “intracerebral arachidonic acid concentration compared to control” value in data set [2] is “decreased significantly”.
Regarding `O=C1N[C@]2(CO1)C[C@H](C(=O)N1CC(CC(F)(F)c3ccc(C(F)(F)F)c(Cl)c3)C1)C2` [Example 110, (2s,4s)-2-((3-(2-(3-chloro-4-(trifluoromethyl)phenyl)-2,2-difluoroethyl)azetidin-1-yl)carbonyl)-7-oxa-5-azaspiro[3.4]octan-6-one], in data set [1] (setting [3]), the inhibition at 10 µM was 100%.
Consider `O=C1N[C@]2(CO1)C[C@H](C(=O)N1CC(/C=C(\F)c3ccc(C(F)(F)F)c(Cl)c3)C1)C2` [Example 111, (2s,4s)-2-((3-((Z)-2-(3-chloro-4-(trifluoromethyl)phenyl)-2-fluorovinyl)azetidin-1-yl)carbonyl)-7-oxa-5-azaspiro[3.4]octan-6-one], for which, in data set [1] (setting [3]), the inhibition at 10 µM worked out at 100%.
On the same count and under the same terms, the value for `O=C1N[C@]2(CO1)C[C@H](C(=O)N1CCC(C(F)(F)c3ccc(F)cc3Cl)CC1)C2` [Example 112, (2s,4s)-2-((4-((2-chloro-4-fluorophenyl)(difluoro)methyl)piperidin-1-yl)carbonyl)-7-oxa-5-azaspiro[3.4]actan-6-one] was 100%; that for `O=C1N[C@]2(CO1)C[C@H](C(=O)N1CC(OCc3cc(C(F)(F)F)cc(C(F)(F)F)c3)C1)C2` [Example 113, (2s,4s)-2-((3-((3,5-bis(trifluoromethyl)benzyl)oxy)azetidin-1-yl)carbonyl)-7-oxa-5-azaspiro[3.4]octan-6-one] was 100%; that for `Cc1cc(COC2CN(C(=O)[C@H]3C[C@]4(COC(=O)N4)C3)C2)c(F)cc1C(F)(F)F` [Example 115, (2s,4s)-2-((3-((2-fluoro-5-methyl-4-(trifluoromethyl)benzyl)oxy)azetidin-1-yl)carbonyl)-7-oxa-5-azaspiro[3.4]octan-6-one] was 100%.
As to `O=C1N[C@]2(CO1)C[C@H](C(=O)N1CC(OCc3ccc(OC(F)(F)F)c(Cl)c3)C1)C2` [Example 116, (2s,4s)-2-((3-((3-chloro-4-(trifluoromethoxy)benzyl)oxy)azetidin-1-yl)carbonyl)-7-oxa-5-azaspiro[3.4]octan-6-one], the inhibition at 10 µM in data set [1] (setting [3]) came to 100%.
Same read-out and setting: the value for `O=C1N[C@]2(CO1)C[C@H](C(=O)N1CC(CC(F)(F)c3ccc(C(F)(F)F)cc3Cl)C1)C2` [Example 117, (2s,4s)-2-((3-(2-(2-chloro-4-(trifluoromethyl)phenyl)-2,2-difluoroethyl)azetidin-1-yl)carbonyl)-7-oxa-5-azaspiro[3.4]octan-6-one] was 100%.
Still for that read-out and setting: the value for `O=C1N[C@]2(CO1)C[C@H](C(=O)N1CC(CC(F)(F)c3ccc(Cl)c(C(F)(F)F)c3)C1)C2` [Example 118, (2s,4s)-2-((3-(2-(4-chloro-3-(trifluoromethyl)phenyl)-2,2-difluoroethyl)azetidin-1-yl)carbonyl)-7-oxa-5-azaspiro[3.4]octan-6-one] was 100%; that for `Cc1ccc(COCC2CN(C(=O)[C@H]3C[C@]4(COC(=O)N4)C3)C2)cc1Cl` [Example 120, (2s,4s)-2-((3-(((3-chloro-4-methylbenzyl)oxy)methyl)azetidin-1-yl)carbonyl)-7-oxa-5-azaspiro[3.4]octan-6-one] was 100%.
The same measure, in the same setting: the value for `Cc1cc(COCC2CN(C(=O)[C@H]3C[C@]4(COC(=O)N4)C3)C2)ccc1Cl` [Example 121, (2s,4s)-2-((3-(((4-chloro-3-methylbenzyl)oxy)methyl)azetidin-1-yl)carbonyl)-7-oxa-5-azaspiro[3.4]octan-6-one] was 101%.
In the case of `Cc1ccc(COC2CN(C(=O)[C@H]3C[C@@]4(COC(=O)N4)C3)C2)cc1Cl` [Example 123, (2r,4r)-2-((3-((3-chloro-4-methylbenzyl)oxy)azetidin-1-yl)carbonyl)-7-oxa-5-azaspiro[3.4]octan-6-one], the inhibition at 10 µM in data set [1] (setting [3]) stood at 99%.
On the same count and under the same terms, the value for `N#Cc1cc(C(F)(F)F)ccc1OCC1CCN(C(=O)[C@H]2C[C@]3(COC(=O)N3)C2)CC1` [Example 128, 2-((1-(((2s,4s)-6-oxo-7-oxa-5-azaspiro[3.4]oct-2-yl)carbonyl)piperidin-4-yl)methoxy)-5-(trifluoromethyl)benzonitrile] was 100%.
For `N#Cc1cc(Cl)ccc1OCC1CCN(C(=O)[C@H]2C[C@]3(COC(=O)N3)C2)CC1` [Example 129, 5-chloro-2-((1-(((2s,4s)-6-oxo-7-oxa-5-azaspiro[3.4]oct-2-yl)carbonyl)piperidin-4-yl)methoxy)benzonitrile], the inhibition at 10 µM in data set [1] (setting [3]) was found to be 100%.
For `N#Cc1ccc(OCC2CCN(C(=O)[C@H]3C[C@]4(COC(=O)N4)C3)CC2)c(Cl)c1` [Example 130, 3-chloro-4-((1-(((2s,4s)-6-oxo-7-oxa-5-azaspiro[3.4]oct-2-yl)carbonyl)piperidin-4-yl)methoxy)benzonitile], the inhibition at 10 µM in data set [1] (setting [3]) came out at 100%.

These data come from US10323026B2, “Heterocyclic compound” (Takeda Pharmaceutical Company Limited, priority 2016, dated 2019).
